Data reported in the supplement of paper PMC10307832.

Legend:
Experiment in all cases: relative viability (nuclei count vs DMSO), 5 days (fraction); higher = more cells survive
[1] = compound: CCCS(=O)(=O)Nc1ccc(F)c(C(=O)c2c[nH]c3ncc(-c4ccc(Cl)cc4)cc23)c1F [Vemurafenib] + C[C@@H](Oc1cc(-c2cnn(C3CCNCC3)c2)cnc1N)c1c(Cl)ccc(F)c1Cl [Crizotinib] (partner 1 µM)
In short: (§1)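 Lung cancer cell lines in 1536-well plates were dosed by pin tool the day after seeding, either with one drug alone or with a fixed anchor-drug dose plus five library-drug doses (not always all listed) in √10 steps. After 5 days, cells were fixed and their nuclei stained in one step (final 0.05% Triton X-100, 1% formaldehyde, 1 ug/ml Hoechst), then counted on 4× images. Relative viability is the nuclei count in treated wells divided by that in vehicle wells. Values are medians of duplicate plates.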

[2] = compound: Cc1nc(NC(=O)N2CCC[C@H]2C(N)=O)sc1-c1ccnc(C(C)(C)C(F)(F)F)c1 [Alpelisib] + CCNC(=O)c1noc(-c2cc(C(C)C)c(O)cc2O)c1-c1ccc(CN2CCOCC2)cc1 [Luminespib] (partner 0.01 µM)
In short: as §1

[3] = compound: Cc1nc(NC(=O)N2CCC[C@H]2C(N)=O)sc1-c1ccnc(C(C)(C)C(F)(F)F)c1 [Alpelisib] + Cc1nc(Nc2ncc(C(=O)Nc3c(C)cccc3Cl)s2)cc(N2CCN(CCO)CC2)n1 [Dasatinib] (partner 0.075 µM)
In short: as §1

[4] = compound: Cc1nc(NC(=O)N2CCC[C@H]2C(N)=O)sc1-c1ccnc(C(C)(C)C(F)(F)F)c1 [Alpelisib] + CC1(C)CCC(c2ccc(Cl)cc2)=C(CN2CCN(c3ccc(C(=O)NS(=O)(=O)c4ccc(N[C@H](CCN5CCOCC5)CSc5ccccc5)c(S(=O)(=O)C(F)(F)F)c4)cc3)CC2)C1 [Navitoclax] (partner 0.5 µM)
In short: as §1

Cell Line	relative viability ([1]; first compound 0.03162 µM)	relative viability ([1]; first compound 0.1 µM)	relative viability ([1]; first compound 0.3162 µM)	relative viability ([1]; first compound 1 µM)	relative viability ([2]; first compound 0.04 µM)	relative viability ([2]; first compound 0.1265 µM)	relative viability ([2]; first compound 0.4 µM)	relative viability ([2]; first compound 1.265 µM)	relative viability ([2]; first compound 4 µM)	relative viability ([3]; first compound 0.04 µM)	relative viability ([3]; first compound 0.1265 µM)	relative viability ([3]; first compound 0.4 µM)	relative viability ([3]; first compound 1.265 µM)	relative viability ([3]; first compound 4 µM)	relative viability ([4]; first compound 0.04 µM)	relative viability ([4]; first compound 0.1265 µM)	relative viability ([4]; first compound 0.4 µM)	relative viability ([4]; first compound 1.265 µM)	relative viability ([4]; first compound 4 µM)
LXF-289	0.783	0.796	0.838	0.87	0.69	0.806	0.619	0.534	0.632	0.257	0.164	0.177	0.121	0.114	0.91	0.972	0.968	0.917	0.939
NCI-H23	0.468	0.541	0.654	0.465	0.225		0.244	0.201	0.215	0.818	0.65	0.702	0.535	0.418	0.708	0.856	0.851	0.532	0.535
NCI-H322M	0.934		1.23	0.716	0.795	0.737	0.789	0.45	0.39	0.225	0.223	0.257	0.253	0.273	0.908	1.07	1.29	0.941	0.936
NCI-H441	0.705	0.684	0.743	0.616	0.395	0.324	0.333	0.272	0.312	0.525	0.72	0.562	0.311	0.358	0.571	0.434	0.8	0.43	0.552
NCI-H460	0.808	0.809	0.692	0.942	0.0253	0.0415	0.0319	0.0281	0.0206	0.42	0.484	0.457	0.245	0.174	1.06	1.25	1.08	0.701	0.299
NCI-H520	0.659	0.755	0.765	0.703	0.18	0.203	0.212	0.245	0.216	0.184	0.218	0.153	0.174	0.149	1.02	0.905	1.07	1.03	0.822
NCI-H596	0.97	1.01	0.992	1.09	0.832	0.884	0.87	0.599	0.424	0.564	0.67	0.578	0.337	0.385	0.928	0.919	0.815	0.52	0.418
NCI-H647	1.03	0.963	0.884	0.713	0.256	0.203	0.157	0.117	0.168	0.228	0.163	0.214	0.0992	0.123	1.04	1.03	1.22	0.83	0.948
NCI-H727	0.793	0.623	1.2	0.954	0.419	0.444	0.3	0.371	0.345	0.424	0.326	0.476	0.313	0.272	0.33	0.303	0.411	0.244	0.137
NCI-H838	0.761	0.783		0.928	0.429	0.387	0.274	0.221	0.299	0.275	0.375	0.296	0.228	0.215	1.02	1.08	1.15	1.04	1.01
NCI-H1355	1	0.963	0.992	1.05	0.679	0.575	0.83	0.608	0.514	0.708	0.551	0.699	0.434	0.443	0.89	1.02	1.07	0.927	0.84
NCI-H1437	0.801	0.937	0.895	0.906	1.16	1.09	1.2	1.07	1.26	0.368	0.338	0.358	0.309	0.342	1.09	1.13	1.03	1.01	1.03
NCI-H1650	0.922		1.08	1.01	0.208	0.192	0.24	0.19	0.18	0.316	0.309	0.322	0.257	0.271	1.29	1.29	1.42	0.762	1.19
NCI-H1651	0.875	0.869	0.806	0.795	0.78	1.05	1	0.78	0.666	0.357	0.463	0.445	0.412	0.293	0.956	1.11	1.04	0.773	0.791
